{"source": "patent US20220008438A1", "about": "(priority 2020, published 2022)", "key": {"[1]": {"details": "in vivo, cited from earlier work"}, "[2]": {"details": "mechanically ventilated adult patients with moderate-to-severe ARDS, confirmed Covid-19 infection; cited from earlier work"}, "murine macrophages": {"tested_on": "murine macrophages", "details": "cited from earlier work"}, "primary HIV-1 isolated": {"tested_on": "primary HIV-1 isolated", "assay": "HIV-1 replication in MT2 cell line assays", "format": "cell-based", "method": "The total destruction of the viral culture was observed from concentrations of 25 μg/ml of TMA's Maslinic acid, while between 5 and 20 μg/ml, a decrease in viability was observed between 57% and 19%."}, "HIV-1 protease": {"biological_target": "HIV-1 protease (Human immunodeficiency virus type 1 group M subtype B, UniProt P04585)", "details": "in vitro; cited from earlier work"}}, "data": [{"molecule": "CC1(C)CC[C@]2(C(=O)O)CC[C@]3(C)C(=CC[C@@H]4[C@@]5(C)CC[C@H](O)C(C)(C)[C@@H]5CC[C@]43C)[C@@H]2C1", "note": "[OA, Oleanolic acid]", "values": [{"measurement": "values in the biological fluids", "setting": "[1]", "value": "increased in the biological fluids in a dose-dependent manner"}]}, {"molecule": "C[C@@H]1C[C@H]2[C@@H]3CCC4=CC(=O)C=C[C@]4(C)[C@@]3(F)[C@@H](O)C[C@]2(C)[C@@]1(O)C(=O)CO", "note": "[Dexametasone]", "values": [{"measurement": "effectiveness, share of cases", "setting": "[2]", "value": 33, "unit": "%"}]}, {"molecule": "CC1(C)CC[C@]2(C(=O)O)CC[C@]3(C)C(=CC[C@@H]4[C@@]5(C)C[C@@H](O)[C@H](O)C(C)(C)[C@@H]5CC[C@]43C)[C@@H]2C1", "note": "[Maslinic acid, 2-alfa,3-betadihydroxy-28-carboxiolean-12-eno]", "values": [{"measurement": "pro-inflammatory cytokine generation", "setting": "murine macrophages", "value": "strong reduction"}, {"measurement": "concentration giving total destruction of the viral culture", "setting": "primary HIV-1 isolated", "value": "≥ 25", "unit": "µg/mL"}, {"measurement": "cytopathic effect", "setting": "primary HIV-1 isolated; MT2 cell line, 25 μg/ml", "value": "decrease was detected"}, {"measurement": "level of p24 antigen in the culture supernatant", "setting": "primary HIV-1 isolated; MT2 cell line, 25 μg/ml", "value": "decrease was detected"}, {"measurement": "cytopathic effect", "setting": "primary HIV-1 isolated; MT2 cell line, 30 μg/ml", "value": "absence total cytopathic effect"}, {"measurement": "p24 antigen", "setting": "primary HIV-1 isolated; MT2 cell line, 30 μg/ml", "value": "decrease in p24 antigen"}, {"measurement": "inhibitory effect on replication", "setting": "primary HIV-1 isolated; between 5 and 20 μg/ml, cultures infected with different amounts of HIV-1", "value": "did not produce any inhibitory effect"}, {"measurement": "bioavailability compared", "setting": "[1]; human", "value": "higher than that of OA"}, {"measurement": "values in the biological fluids", "setting": "[1]", "value": "increased in the biological fluids in a dose-dependent manner"}, {"measurement": "bioavailability", "setting": "in vivo", "value": 60, "unit": "%"}, {"measurement": "activity against the enzyme isolated from the HIV-1 protease", "setting": "HIV-1 protease", "value": "has in vitro activity"}]}]}
